Where “and” joins values, the source holds several entries; their conditions need not be identical. Equal entries are not always repeated. Where two headings read alike, the source gives them in different places.
Legend:
[1] = molecular target: IRAK4 (Homo sapiens, UniProt Q9NWZ3); test: SelectScreen kinase assay
Experimental: (§1) Selectivity profiling assays were performed by the Invitrogen SelectScreen™ Services. […] The concentration of ATP was selected to be equal to the KM, unless indicated otherwise.

[2] = molecular target: FLT4 (VEGFR3) (Homo sapiens, UniProt P35916); test: SelectScreen kinase assay
Experimental: as §1

[3] = tested on: FLT4 (VEGFR3); test: SelectScreen kinase assay; conditions: IC50 on that kinase divided by IC50 on FES^S700C
Experimental: as §1

[4] = molecular target: PHKG1 (Homo sapiens, UniProt Q16816); test: SelectScreen kinase assay; conditions: 1 h, 1 μM WEL028, 1 h preincubation
Experimental: as §1

[5] = molecular target: AMPK A2/B1/G1 (Homo sapiens, UniProt P54646); test: SelectScreen kinase assay
Experimental: as §1

[6] = molecular target: GSG2 (Haspin) (Homo sapiens, UniProt Q8TF76); test: SelectScreen kinase assay
Experimental: as §1

[7] = molecular target: FGFR3 K650E (Homo sapiens, UniProt P22607, K650E); test: SelectScreen kinase assay; conditions: for Inhibition at 1 µM (%): FGFR3 K650E, ZLYTE, ATP Km app
Experimental: as §1

[8] = molecular target: ACVRL1 (ALK1) (Homo sapiens, UniProt P37023); test: SelectScreen kinase assay
Experimental: as §1

[9] = molecular target: T1, ACVR1B (ALK4) (Homo sapiens, UniProt P36896); test: SelectScreen kinase assay; conditions: for Inhibition at 1 µM (%): ACVR1B (ALK4), ZLYTE, ATP Km app
T1 sequence (P36896 24-505): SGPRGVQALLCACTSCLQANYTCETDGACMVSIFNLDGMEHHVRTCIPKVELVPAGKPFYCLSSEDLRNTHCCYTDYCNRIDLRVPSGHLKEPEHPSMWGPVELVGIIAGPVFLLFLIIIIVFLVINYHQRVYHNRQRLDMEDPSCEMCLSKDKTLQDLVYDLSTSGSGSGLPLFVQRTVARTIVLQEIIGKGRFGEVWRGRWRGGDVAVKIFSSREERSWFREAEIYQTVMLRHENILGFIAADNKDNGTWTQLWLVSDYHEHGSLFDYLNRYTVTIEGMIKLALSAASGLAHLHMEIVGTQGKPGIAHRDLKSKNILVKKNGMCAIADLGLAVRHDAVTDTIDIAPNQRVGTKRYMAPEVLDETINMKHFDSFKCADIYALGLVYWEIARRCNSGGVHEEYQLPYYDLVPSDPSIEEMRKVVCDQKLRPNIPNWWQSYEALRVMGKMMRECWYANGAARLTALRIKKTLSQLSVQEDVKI
Experimental: as §1

[10] = molecular target: PRKG1 (Homo sapiens, UniProt Q13976); test: SelectScreen kinase assay
Experimental: as §1

[11] = molecular target: T2, BRSK2 (Homo sapiens, UniProt Q8IWQ3); test: SelectScreen kinase assay
T2 sequence (Q8IWQ3 1-736): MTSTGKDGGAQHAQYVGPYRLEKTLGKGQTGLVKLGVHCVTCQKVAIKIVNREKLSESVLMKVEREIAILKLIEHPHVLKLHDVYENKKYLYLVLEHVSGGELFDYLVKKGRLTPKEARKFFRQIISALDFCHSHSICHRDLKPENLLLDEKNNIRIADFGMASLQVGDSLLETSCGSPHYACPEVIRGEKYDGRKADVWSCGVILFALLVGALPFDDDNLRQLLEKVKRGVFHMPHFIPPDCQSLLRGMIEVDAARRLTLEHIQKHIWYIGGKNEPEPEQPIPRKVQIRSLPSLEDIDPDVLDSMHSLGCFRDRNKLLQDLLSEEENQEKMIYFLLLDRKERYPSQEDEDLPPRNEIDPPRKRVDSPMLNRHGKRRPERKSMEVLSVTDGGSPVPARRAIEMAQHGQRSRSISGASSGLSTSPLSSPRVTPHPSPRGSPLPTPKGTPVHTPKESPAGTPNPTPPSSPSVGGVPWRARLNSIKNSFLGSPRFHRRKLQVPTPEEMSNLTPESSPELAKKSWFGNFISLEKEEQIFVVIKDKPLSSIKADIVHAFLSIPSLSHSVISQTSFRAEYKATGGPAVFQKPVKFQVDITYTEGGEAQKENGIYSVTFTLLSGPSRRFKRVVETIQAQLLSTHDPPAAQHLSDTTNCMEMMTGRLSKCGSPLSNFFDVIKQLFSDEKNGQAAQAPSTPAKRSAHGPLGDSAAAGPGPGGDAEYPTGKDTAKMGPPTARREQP
Experimental: as §1

[12] = molecular target: PAK4 (Homo sapiens, UniProt O96013); test: SelectScreen kinase assay
Experimental: as §1

[13] = molecular target: STK38 (NDR) (Homo sapiens, UniProt Q15208); test: SelectScreen kinase assay; conditions: for Inhibition at 1 µM (%): LanthaScreen Binding
Experimental: as §1

[14] = molecular target: NTRK1 (TRKA) (Homo sapiens, UniProt P04629); test: SelectScreen kinase assay
Experimental: as §1

[15] = molecular target: AXL (Homo sapiens, UniProt P30530); test: SelectScreen kinase assay; conditions: for Inhibition at 1 µM (%): AXL, ZLYTE, ATP Km app
Experimental: as §1

[16] = molecular target: FES^S700C (Homo sapiens, UniProt P07332, S700C); test: In situ two-step labeling of transfected HEK293T cells (click chemistry); type: cell-based; parameters: expressed in transfected cells; host or cells: HEK293T (transient, PEI)
[17] = 1 h, 1 μM WEL028, 1 h preincubation

FLT4 (VEGFR3) (Homo sapiens, UniProt P35916), sequence (P35916 25-1363, species assumed): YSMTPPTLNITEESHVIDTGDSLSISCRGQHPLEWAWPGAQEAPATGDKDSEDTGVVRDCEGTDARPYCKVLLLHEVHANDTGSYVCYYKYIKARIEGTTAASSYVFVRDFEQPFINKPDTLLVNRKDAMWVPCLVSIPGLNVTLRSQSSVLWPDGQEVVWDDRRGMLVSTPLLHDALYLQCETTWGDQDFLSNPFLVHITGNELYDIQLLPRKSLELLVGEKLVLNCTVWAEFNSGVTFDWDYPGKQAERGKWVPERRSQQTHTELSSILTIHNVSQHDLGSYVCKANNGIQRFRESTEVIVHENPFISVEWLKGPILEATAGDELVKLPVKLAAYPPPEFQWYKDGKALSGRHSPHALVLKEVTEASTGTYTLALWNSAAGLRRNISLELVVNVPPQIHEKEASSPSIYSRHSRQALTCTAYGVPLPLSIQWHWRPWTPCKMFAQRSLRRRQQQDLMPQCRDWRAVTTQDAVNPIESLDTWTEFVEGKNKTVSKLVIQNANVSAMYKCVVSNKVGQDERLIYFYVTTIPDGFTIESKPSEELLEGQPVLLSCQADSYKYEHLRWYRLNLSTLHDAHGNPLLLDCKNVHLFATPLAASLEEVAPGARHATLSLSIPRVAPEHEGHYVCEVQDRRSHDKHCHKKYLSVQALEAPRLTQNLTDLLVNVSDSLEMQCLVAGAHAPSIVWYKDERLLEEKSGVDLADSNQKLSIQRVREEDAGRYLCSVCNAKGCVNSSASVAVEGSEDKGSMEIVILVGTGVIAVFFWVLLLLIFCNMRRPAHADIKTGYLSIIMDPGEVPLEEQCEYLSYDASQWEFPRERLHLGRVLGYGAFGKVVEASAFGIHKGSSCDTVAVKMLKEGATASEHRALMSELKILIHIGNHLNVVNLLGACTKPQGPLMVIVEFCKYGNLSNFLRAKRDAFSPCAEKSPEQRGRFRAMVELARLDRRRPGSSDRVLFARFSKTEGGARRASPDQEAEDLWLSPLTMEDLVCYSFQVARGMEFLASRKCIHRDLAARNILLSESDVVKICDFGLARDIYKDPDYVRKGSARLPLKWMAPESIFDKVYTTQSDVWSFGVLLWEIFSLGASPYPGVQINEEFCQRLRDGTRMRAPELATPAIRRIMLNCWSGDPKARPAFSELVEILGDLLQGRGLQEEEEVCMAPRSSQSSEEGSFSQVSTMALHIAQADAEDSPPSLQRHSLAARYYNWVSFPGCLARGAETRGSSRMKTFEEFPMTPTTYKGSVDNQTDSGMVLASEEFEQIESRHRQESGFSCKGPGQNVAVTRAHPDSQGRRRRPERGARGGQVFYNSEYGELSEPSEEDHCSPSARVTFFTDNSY
FGFR3 K650E, sequence (P22607 23-806 K650E): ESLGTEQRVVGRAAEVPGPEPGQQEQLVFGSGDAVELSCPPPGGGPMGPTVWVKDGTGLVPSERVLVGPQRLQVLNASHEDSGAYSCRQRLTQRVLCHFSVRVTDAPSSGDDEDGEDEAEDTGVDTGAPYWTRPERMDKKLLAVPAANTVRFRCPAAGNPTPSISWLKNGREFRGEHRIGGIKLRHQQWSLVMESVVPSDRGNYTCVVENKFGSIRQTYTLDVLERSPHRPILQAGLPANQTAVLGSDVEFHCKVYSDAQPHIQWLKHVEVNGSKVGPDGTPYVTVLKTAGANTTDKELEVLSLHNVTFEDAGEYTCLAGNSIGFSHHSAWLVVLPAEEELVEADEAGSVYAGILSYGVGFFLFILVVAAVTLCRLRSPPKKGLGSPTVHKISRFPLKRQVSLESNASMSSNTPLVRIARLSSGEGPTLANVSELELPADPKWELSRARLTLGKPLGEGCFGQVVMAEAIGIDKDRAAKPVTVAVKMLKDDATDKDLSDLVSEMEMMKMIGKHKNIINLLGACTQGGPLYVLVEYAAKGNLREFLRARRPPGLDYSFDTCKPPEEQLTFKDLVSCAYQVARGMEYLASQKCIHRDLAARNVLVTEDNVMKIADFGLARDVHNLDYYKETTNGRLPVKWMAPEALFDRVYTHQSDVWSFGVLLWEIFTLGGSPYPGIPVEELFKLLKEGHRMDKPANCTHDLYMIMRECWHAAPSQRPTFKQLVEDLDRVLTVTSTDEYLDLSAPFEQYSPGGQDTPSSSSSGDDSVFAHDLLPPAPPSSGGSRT
STK38 (NDR), sequence (Q15208 whole entry): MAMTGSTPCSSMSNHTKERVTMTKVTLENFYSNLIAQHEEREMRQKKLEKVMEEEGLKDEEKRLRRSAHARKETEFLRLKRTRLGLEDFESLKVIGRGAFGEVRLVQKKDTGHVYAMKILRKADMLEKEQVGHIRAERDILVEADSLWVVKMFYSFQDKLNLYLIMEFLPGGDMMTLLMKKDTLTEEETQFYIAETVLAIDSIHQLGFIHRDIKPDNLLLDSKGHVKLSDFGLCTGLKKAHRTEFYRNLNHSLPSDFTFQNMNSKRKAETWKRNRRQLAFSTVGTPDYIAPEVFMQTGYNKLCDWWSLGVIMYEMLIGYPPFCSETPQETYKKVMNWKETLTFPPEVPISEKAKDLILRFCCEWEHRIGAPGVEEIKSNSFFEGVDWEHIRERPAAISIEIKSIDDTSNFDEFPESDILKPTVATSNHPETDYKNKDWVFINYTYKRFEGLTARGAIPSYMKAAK
PRKG1, sequence (Q13976 whole entry): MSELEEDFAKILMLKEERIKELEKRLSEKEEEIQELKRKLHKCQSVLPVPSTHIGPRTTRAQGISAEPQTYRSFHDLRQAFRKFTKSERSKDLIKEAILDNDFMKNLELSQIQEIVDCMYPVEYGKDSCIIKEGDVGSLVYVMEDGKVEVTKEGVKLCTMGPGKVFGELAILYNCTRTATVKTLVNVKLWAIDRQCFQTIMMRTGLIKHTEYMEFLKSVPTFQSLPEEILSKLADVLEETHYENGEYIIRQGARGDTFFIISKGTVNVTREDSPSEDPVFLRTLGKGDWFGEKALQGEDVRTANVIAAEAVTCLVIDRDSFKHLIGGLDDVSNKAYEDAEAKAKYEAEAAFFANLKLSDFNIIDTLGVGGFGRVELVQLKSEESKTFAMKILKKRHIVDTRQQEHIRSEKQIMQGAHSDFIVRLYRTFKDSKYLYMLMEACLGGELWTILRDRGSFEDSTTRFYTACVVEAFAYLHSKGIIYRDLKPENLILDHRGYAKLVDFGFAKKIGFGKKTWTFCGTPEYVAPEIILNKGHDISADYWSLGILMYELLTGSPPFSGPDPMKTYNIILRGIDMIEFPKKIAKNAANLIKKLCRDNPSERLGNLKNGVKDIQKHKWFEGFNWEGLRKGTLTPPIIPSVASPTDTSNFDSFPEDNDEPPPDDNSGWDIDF
AXL, sequence (P30530 26-894): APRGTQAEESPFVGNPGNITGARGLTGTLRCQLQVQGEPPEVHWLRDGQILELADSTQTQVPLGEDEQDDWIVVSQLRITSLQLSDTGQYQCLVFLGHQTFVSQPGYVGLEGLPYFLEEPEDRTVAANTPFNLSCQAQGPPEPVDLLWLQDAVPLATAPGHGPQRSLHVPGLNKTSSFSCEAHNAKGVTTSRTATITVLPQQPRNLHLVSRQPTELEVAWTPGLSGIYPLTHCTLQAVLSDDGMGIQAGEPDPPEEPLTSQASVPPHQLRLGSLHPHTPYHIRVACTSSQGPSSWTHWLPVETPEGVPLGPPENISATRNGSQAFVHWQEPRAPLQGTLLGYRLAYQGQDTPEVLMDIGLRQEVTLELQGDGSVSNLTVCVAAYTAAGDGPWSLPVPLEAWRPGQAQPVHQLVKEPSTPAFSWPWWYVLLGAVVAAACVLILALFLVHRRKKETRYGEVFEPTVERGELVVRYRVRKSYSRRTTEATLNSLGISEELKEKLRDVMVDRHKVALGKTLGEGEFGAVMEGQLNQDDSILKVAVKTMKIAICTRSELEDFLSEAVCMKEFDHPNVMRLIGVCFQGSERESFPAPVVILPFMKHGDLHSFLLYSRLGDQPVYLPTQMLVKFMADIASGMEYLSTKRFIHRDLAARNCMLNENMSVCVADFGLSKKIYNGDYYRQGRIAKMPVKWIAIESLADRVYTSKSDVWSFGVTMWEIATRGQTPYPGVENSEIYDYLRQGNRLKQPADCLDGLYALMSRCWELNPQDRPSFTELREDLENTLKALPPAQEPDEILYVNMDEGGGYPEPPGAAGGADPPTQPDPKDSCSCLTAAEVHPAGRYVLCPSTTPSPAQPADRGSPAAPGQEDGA
IRAK4, sequence (Q9NWZ3 whole entry): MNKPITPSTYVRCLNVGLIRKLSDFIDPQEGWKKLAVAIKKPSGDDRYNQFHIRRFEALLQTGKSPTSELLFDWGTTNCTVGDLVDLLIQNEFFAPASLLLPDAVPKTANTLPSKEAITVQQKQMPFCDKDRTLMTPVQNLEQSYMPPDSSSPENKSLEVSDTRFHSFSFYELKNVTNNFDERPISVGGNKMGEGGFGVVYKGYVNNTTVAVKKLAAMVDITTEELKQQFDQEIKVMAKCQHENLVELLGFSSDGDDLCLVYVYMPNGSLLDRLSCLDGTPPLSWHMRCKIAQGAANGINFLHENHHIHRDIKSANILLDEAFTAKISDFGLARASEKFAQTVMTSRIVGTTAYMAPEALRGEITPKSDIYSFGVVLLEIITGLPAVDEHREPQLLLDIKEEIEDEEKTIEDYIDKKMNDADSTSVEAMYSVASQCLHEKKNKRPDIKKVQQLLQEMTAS
ACVRL1 (ALK1), sequence (P37023 22-503): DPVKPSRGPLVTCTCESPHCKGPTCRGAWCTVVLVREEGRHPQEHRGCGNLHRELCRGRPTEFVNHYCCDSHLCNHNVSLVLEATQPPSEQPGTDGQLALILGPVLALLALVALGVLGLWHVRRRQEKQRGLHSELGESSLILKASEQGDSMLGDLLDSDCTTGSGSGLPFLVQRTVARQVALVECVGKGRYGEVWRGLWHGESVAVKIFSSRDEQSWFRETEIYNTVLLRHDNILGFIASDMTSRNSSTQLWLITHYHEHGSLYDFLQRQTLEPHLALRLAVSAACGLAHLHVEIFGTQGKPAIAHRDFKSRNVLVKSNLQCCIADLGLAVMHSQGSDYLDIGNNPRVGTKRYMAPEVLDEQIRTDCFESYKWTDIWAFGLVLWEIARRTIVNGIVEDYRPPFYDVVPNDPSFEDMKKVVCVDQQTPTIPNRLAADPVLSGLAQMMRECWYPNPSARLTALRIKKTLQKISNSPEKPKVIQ

C#CCOc1ccc(Nc2ncc(Cl)c(Nc3ccccc3NC(=O)C=C)n2)c(OC)c1 [Compound 6]
Inhibition (%) ([1]; 1 μM WEL028, 1 h preincubation): 0% | Inhibition at 1 µM (%) ([1]; IRAK4, 1 µM, ZLYTE, ATP Km app, listed as WEL028, 1 µM): -3% and 3% | IC50 [2]: 200 nM | inhibition at 1 µM [2, 17]: 120% | inhibition at 10 µM ([2]; 1 h, log[inhibitor] (M) -5.00, ZLYTE, ATP Km app): 103% | inhibition at 3.31 µM ([2]; 1 h, log[inhibitor] (M) -5.48, ZLYTE, ATP Km app): 100% | inhibition at 1.12 µM ([2]; 1 h, log[inhibitor] (M) -5.95, ZLYTE, ATP Km app): 95% | inhibition at 0.372 µM ([2]; 1 h, log[inhibitor] (M) -6.43, ZLYTE, ATP Km app): 70% | inhibition at 0.123 µM ([2]; 1 h, log[inhibitor] (M) -6.91, ZLYTE, ATP Km app): 38% | inhibition at 0.04074 µM ([2]; 1 h, log[inhibitor] (M) -7.39, ZLYTE, ATP Km app): 9% | inhibition at 0.0138 µM ([2]; 1 h, log[inhibitor] (M) -7.86, ZLYTE, ATP Km app): 4% | inhibition at 0.00151 µM ([2]; 1 h, log[inhibitor] (M) -8.82, ZLYTE, ATP Km app): 2% | inhibition at 1 µM ([2]; read-out: Inhibition at 1 µM (%), FLT4 (VEGFR3), 1 µM, ZLYTE, ATP Km app): 121% | Apparent fold selectivity [3]: 50 fold | inhibition at 1 µM [4]: -2% | inhibition at 1 µM [5, 17]: 4% | Inhibition at 1 µM (%) ([5]; AMPK A2/B1/G1, 1 µM, ZLYTE, ATP Km app): -2% | inhibition at 1 µM [6, 17]: 6% | Inhibition at 1 µM (%) ([6]; GSG2 (Haspin), 1 µM, Adapta, ATP Km app): 20% | inhibition at 1 µM [7, 17]: 8% | Inhibition at 1 µM (%) [7]: 12% | Inhibition at 1 µM (%) ([7]; listed as WEL028, 1 µM): 4% | inhibition at 1 µM [8, 17]: 6% | Inhibition at 1 µM (%) ([8]; ACVRL1 (ALK1), 1 µM, LanthaScreen Binding): 12% | inhibition at 1 µM [9, 17]: 1% | Inhibition at 1 µM (%) [9]: -2% | Inhibition at 1 µM (%) ([9]; listed as WEL028, 1 µM): 5% | Inhibition at 1 µM (%) ([10]; 1 µM, ZLYTE, ATP Km app, listed as WEL028, 1 µM): -6% and 0% | inhibition at 1 µM [10, 17]: -3% | inhibition at 1 µM [11, 17]: 7% | Inhibition at 1 µM (%) ([11]; BRSK2, 1 µM, LanthaScreen Binding, listed as WEL028, 1 µM): 8% | inhibition at 1 µM ([11]; read-out: Inhibition at 1 µM (%), BRSK2, 1 µM, LanthaScreen Binding): 7% | inhibition at 1 µM [12, 17]: -4% | Inhibition at 1 µM (%) ([12]; PAK4, 1 µM, ZLYTE, ATP Km app, listed as WEL028, 1 µM): -8% and 1% | Inhibition at 1 µM (%) [13]: 2% | Inhibition at 1 µM (%) ([13]; listed as WEL028, 1 µM): 6% | inhibition at 1 µM [13, 17]: 4% | inhibition at 1 µM [14, 17]: 17% | Inhibition at 1 µM (%) ([14]; NTRK1 (TRKA), 1 µM, ZLYTE, ATP Km app, listed as WEL028, 1 µM): 16% | inhibition at 1 µM ([14]; read-out: Inhibition at 1 µM (%), NTRK1 (TRKA), 1 µM, ZLYTE, ATP Km app): 17% | inhibition at 1 µM [15, 17]: -2% | Inhibition at 1 µM (%) [15]: 3% | Inhibition at 1 µM (%) ([15]; listed as WEL028, 1 µM): -6% | Cell permeability ([16]; living HEK293T cells): cell-permeable | Concentration sufficient to fully block labeling of FES^S700C ([16]; living HEK293T cells): 100 nM | IC50 ([16]; transfected HEK293T cells treated with WEL028, click chemistry, n = 3, read-out: pIC50, labeling of FES^S700C in live cells (converted)): 25.1 nM

From paper PMC7316778 (Nature Communications, 2020)
